# Peptide text beside a SMILES is read from it.
# Experiment: Amount of magnesium captured per 100 g of substance (X), ion-selective electrode method
# Assay type: physicochemical
# Experimental: As for the substance (X), the amount of magnesium captured per 100 g of the substance (X) is preferably 1 g or more, as measured by the ion-selective electrode method.
# When the substance (X) is a hydrate, 100 g of the substance (X) refers to 100 g by weight excluding hydration water.
# The measurement by the ion-selective electrode method is performed using 2 mM of the substance (X) relative to a 1 mM aqueous MgCl2 solution having a temperature of 20° C. and a pH of 7.
# Each substance (X) was subjected to measurement of the amount (g) of magnesium captured per 100 g of the substance (X) by the ion-selective electrode method as follows. For (X-5), the amount of magnesium captured per 100 g of Na2WO4 contained in (X-5) was measured. For (X-16), the amount of magnesium captured per 100 g of adenosine triphosphate disodium contained in (X-16) was measured.
# The measurement by the ion-selective electrode method was performed using 2 mM of the substance (X) relative to a 1 mM aqueous MgCl2 solution having a temperature of 20° C. and a pH of 7.
row,Compound,Amount of magnesium (g) captured per 100 g of substance (X)
1,"O=C(O)CC(O)(CC(=O)O)C(=O)O [Example X-9, Citric acid]",20 g
2,"Oc1cccc2cccnc12 [Example X-14, 8-Quinolinol]",2 g
3,"O=P([O-])([O-])OP(=O)([O-])OP(=O)([O-])[O-].[Na+].[Na+].[Na+].[Na+].[Na+] [Example X-1, Pentasodium triphosphate]",5 g
4,"O=C(O)CNCC(=O)O [Example X-13, Iminodiacetic acid]",8 g
5,"NCC(=O)NCC(=O)O [Example X-6, Glycylglycine] (H-Gly-Gly-OH)",2 g
6,"Nc1ncnc2c1ncn2[C@@H]1O[C@H](COP(=O)([O-])OP(=O)([O-])OP(=O)(O)O)[C@@H](O)[C@H]1O.O.O.O.[Na+].[Na+] [Example X-16, Adenosine triphosphate disodium trihydrate]",5 g
7,"N[C@@H](CCC(=O)O)C(=O)O [Example X-7, Glutamic acid]",2 g
8,"CC(=O)CC(=O)c1ccccc1 [Example X-3, Benzoylacetone]",3 g
9,"CC(=O)CCC(=O)O [Example X-4, Levulinic acid]",2 g
10,"O=C(O)C(O)C(O)C(=O)O (stereo not shown) [Example X-15, Tartaric acid]",9 g
11,"O.O.[Na+].[Na+].[O]=[W](=[O])([O-])[O-] [Example X-5, Sodium tungstate dihydrate]",2 g
12,"O=C(O)[C@H](O)[C@@H](O)[C@H](O)[C@H](O)CO [Example X-10, Gluconic acid]",30 g
13,"O=C(O)CN(CCN(CC(=O)O)CC(=O)O)CC(=O)O [Example X-12, Ethylenediaminetetraacetic acid]",10 g
14,"O=C[C@H](O)[C@@H](O)[C@H](O)[C@H](O)C(=O)O [Example X-11, Glucuronic acid]",15 g
15,"CC(=O)CC(C)=O [Example X-2, Acetylacetone]",3 g
16,"O=C(O)CC(O)C(=O)O (stereo not shown) [Example X-8, Malic acid]",15 g
